Here are results for 1 molecule from paper PMC7073924, “2-Aminomethylene-5-sulfonylthiazole Inhibitors of Lysyl Oxidase (LOX) and LOXL2 Show Significant Efficacy in Delaying Tumor Growth” (Journal of Medicinal Chemistry, 2019).

Several values for one entry are separate records, joined by “and”; a condition that tells them apart may be missing. Identical values can stand only once. Counter-ions that a name gives are not always drawn.

Series [1] concerns the target hERG human potassium ion channel (Homo sapiens, UniProt Q12809).
Protocol: hERG inhibition was determined using the “hERG human potassium ion channel cell based antagonist Qpatch assay” by Eurofins Ltd. Cell permeability was determined using the “Caco-2 permeability assay” by Cyprotex Ltd.
Series [2] concerns the target T1, SSAO (Homo sapiens, UniProt Q16853).
T1 construct: purchased Sigma
T1 sequence (Q16853 1-763): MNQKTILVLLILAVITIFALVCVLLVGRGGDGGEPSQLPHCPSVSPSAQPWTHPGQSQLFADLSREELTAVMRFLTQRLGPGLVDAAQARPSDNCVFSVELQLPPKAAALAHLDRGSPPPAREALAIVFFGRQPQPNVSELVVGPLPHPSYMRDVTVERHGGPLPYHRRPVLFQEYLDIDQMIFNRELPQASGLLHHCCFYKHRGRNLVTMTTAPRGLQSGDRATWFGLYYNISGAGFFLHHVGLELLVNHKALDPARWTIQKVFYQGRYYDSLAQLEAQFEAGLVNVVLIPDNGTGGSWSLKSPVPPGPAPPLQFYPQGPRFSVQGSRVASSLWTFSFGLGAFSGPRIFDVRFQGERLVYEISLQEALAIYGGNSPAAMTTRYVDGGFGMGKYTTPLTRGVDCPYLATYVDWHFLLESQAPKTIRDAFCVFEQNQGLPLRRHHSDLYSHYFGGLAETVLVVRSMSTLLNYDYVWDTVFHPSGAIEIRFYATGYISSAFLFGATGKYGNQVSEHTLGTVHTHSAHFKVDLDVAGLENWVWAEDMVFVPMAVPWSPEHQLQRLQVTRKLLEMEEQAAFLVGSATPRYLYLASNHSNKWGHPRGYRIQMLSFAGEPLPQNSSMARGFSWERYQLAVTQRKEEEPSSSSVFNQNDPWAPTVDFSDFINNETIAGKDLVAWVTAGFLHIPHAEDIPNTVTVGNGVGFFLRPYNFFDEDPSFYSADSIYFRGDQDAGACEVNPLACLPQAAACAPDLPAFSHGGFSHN
Format: biochemical. Particulars: Table 7.
Protocol: (§1) All amine oxidase assays were performed with concentrations as above. MAO-A and MAO-B enzymes were purchased from Sigma. The catalytic activity of MAO-A and MAO-B was determined using the Promega MAO-Glo assay kit (substrate included), with clorgyline and deprenyl as reference inhibitor controls, respectively. DAO was purchased from Sigma, and the catalytic activity was determined using the Promega ROS-Glo assay kit, with aminoguanidine as the reference inhibitor control. SSAO was purchased from Sigma. SSAO catalytic activity was determined using the Promega MAO-Glo assay kit, with mofegiline as the reference inhibitor control.

Series [3] can be described thus: MLM stability assay. Format: in vitro ADME. Particulars: mouse liver microsomes; percentage of compound remaining after 30 min; 10 μM. In general terms: Liver microsomes are vesicles of endoplasmic reticulum, rich in cytochrome P450 enzymes.
Protocol: Mouse liver microsomes (CD1 female; M1500) and rat liver microsomes (Sprague Dawley female; R1500) were purchased from Tebu-bio, and the assay was performed by methods previously described.[21] Inhibitors at 10 μM concentration incubated with the microsomes were assessed at 0, 15, and 30 min. Control samples containing no microsomes and no cofactors were also assessed at 0 and 30 min. Samples were extracted by protein precipitation, and centrifugation for 20 min in a refrigerated centrifuge (4 °C) at 3700 rpm. The supernatant was analyzed by LC–MS/MS for % metabolized over time.
Series [4] addresses T2, MAO-B (Homo sapiens, UniProt P27338).
T2 construct: purchased Sigma
T2 sequence (P27338 1-520): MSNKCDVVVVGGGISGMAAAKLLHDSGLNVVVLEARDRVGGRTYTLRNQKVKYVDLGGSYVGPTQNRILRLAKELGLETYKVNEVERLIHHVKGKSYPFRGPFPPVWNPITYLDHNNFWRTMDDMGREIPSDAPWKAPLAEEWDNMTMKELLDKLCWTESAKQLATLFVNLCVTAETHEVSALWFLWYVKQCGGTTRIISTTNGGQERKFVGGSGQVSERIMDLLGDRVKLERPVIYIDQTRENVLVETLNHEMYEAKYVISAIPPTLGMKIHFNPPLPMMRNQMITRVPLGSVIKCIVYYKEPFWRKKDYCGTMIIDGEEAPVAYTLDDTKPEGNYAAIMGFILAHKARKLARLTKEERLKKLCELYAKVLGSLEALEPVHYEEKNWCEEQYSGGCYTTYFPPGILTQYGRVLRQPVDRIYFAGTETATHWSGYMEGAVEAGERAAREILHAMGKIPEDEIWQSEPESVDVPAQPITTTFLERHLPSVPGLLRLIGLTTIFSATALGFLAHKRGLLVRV
Format: biochemical. Particulars: Table 7.
Protocol: as §1

A short description of series [5]: In vivo PK, mouse. Particulars: single po dose 50 mg/kg.
Description: Female Balb/C or CD1 nude mice (Charles River Laboratories) at 6 weeks of age were used for the mouse PK analyses. […] Three mice were used per time-point per route; average values are reported. They were placed under halothane or isoflurane anesthesia, and blood for plasma preparation was taken by terminal cardiac puncture into heparinized syringes.
For series [6], the target named is T3, MAO-A (Homo sapiens, UniProt P21397).
T3 construct: purchased Sigma
T3 sequence (P21397 1-527): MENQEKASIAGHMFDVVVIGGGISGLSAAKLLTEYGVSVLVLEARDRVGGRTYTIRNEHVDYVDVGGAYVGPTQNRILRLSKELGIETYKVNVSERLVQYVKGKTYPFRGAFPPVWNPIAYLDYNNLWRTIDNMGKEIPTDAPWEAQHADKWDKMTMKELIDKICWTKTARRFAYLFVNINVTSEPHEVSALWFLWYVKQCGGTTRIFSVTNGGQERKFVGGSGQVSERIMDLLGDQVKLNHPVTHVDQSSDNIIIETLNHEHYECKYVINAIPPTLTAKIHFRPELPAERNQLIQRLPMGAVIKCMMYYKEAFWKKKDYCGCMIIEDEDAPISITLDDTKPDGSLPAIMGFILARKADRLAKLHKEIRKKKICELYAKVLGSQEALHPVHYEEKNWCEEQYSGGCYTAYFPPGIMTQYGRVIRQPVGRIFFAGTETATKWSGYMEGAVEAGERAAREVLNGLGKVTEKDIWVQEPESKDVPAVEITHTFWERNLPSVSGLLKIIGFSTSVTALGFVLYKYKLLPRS
Format: biochemical. The following applies: Table 7.
Protocol: as §1

In series [7] the target is T4, DAO (Sus scrofa, UniProt Q9TRC7).
T4 construct: purchased Sigma
T4 sequence (Q9TRC7 25-755): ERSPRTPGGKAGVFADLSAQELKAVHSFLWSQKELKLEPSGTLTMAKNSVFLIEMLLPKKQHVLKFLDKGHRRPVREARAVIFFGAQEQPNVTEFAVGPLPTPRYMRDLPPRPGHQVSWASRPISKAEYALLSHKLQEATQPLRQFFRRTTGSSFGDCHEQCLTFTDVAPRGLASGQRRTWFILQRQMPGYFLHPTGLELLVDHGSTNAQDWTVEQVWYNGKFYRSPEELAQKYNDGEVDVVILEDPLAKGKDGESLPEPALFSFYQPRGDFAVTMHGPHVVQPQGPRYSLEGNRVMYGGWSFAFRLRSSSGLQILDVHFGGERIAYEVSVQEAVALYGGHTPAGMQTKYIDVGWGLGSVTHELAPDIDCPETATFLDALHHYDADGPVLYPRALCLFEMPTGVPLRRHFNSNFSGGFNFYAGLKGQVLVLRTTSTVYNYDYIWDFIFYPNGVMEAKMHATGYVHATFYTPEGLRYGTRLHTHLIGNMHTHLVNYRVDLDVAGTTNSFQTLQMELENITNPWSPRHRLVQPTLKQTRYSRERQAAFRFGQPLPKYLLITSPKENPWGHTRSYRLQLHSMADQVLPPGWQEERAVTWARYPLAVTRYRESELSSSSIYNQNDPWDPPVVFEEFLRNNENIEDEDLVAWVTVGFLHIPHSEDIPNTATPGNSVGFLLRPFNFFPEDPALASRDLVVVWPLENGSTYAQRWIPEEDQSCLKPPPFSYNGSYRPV
Format: biochemical. The following applies: Table 7.
Protocol: as §1

Broadly, the IC50 is the concentration that gives 50% inhibition. Read a low IC50 as higher potency. In general, Cmax refers to the peak of the concentration-time curve.

hERG human potassium ion channel, sequence (Q12809 whole entry): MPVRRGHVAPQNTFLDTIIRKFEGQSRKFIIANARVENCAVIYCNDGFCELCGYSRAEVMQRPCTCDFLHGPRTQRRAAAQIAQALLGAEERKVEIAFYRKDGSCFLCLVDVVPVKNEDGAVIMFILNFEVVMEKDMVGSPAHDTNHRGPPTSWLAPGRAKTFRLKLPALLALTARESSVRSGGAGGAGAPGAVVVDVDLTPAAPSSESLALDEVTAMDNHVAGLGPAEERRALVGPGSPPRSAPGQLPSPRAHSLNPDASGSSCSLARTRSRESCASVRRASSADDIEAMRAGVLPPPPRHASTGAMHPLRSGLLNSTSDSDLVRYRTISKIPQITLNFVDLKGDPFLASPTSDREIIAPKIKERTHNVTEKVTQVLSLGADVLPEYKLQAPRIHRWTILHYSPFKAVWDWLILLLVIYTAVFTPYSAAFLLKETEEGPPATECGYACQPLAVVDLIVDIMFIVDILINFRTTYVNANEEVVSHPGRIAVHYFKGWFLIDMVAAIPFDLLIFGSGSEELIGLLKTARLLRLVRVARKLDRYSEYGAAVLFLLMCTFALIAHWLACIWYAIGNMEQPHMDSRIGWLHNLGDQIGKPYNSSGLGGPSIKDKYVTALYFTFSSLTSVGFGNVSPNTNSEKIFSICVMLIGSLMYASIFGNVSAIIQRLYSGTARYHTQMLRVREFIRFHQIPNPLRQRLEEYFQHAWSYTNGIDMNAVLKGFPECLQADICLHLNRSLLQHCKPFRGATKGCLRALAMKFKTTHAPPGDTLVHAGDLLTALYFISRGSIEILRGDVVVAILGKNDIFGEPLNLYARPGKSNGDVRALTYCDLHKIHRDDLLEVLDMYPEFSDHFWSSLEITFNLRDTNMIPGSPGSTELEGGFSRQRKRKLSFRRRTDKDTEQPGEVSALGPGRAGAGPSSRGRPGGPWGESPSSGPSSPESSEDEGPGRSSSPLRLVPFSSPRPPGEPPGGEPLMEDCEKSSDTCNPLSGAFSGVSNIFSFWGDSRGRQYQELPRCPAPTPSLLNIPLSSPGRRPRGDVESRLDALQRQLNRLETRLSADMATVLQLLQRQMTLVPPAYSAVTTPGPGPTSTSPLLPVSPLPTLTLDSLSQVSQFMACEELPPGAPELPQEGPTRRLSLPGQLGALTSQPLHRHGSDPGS

In the case of `Cn1cc(-c2cc(F)cc(S(=O)(=O)c3cnc(CN)s3)c2)cn1` [Compound 21e, (5-((3-Fluoro-5-(1-methyl-1H-pyrazol-4-yl)phenyl)sulfonyl)thiazol-2-yl)methanamine Hydrochloride], the IC50 in series [1] is 66 µM; in series [2], 36.3 µM and 40.3 µM; in series [4] it was over 100 µM; in series [6], 61.7 µM and 66.8 µM; in series [7], 21.3 µM and 22.5 µM. In addition, the “MLM stability (%)” value in series [3] was determined as 90%. For the same molecule, in series [5] (mouse plasma), the “AUC(PO)” value worked out at 4.48 µM·h. In addition, the highest level in series [5] (mouse plasma) (Cmax) was 9.75 µM. Moreover, in series [5] (mouse), the “t1/2(PO)” value is on record as 2.0 h.
